The record followed here is patent publication EP0411395A2, “Use of ACE inhibitors for atherosclerosis-prophylaxis” (THERA PATENT-VERWALTUNGS-GmbH, priority 1989, dated 1991).

The test is described as follows: Three-year placebo-controlled study in overweight persons: Doppler sonographic maximal blood flow velocity in the Arteria dorsalis pedis as parameter of atherosclerosis. It counts as in vivo, Patienten. Conditions: for MAXIMALE BLUTSTRÖMUNGSGESCHWINDIGK.: 2 x 3 mg tgl. oral, Arteria dorsalis pedis. The text has this:
Es wurden 122 übergewichtige Personen ausgesucht, die im Mittel 25 % Übergewicht hatten. Diese Patienten gaben nach Aufklärung ihr Einverständnis, an dieser Studie über 3 Jahre teilzunehmen. Sie hatten bereits 5 bis 10 Versuche einer Gewichtsabnahme hinter sich, die alle […] verlaufen waren. Ein Diabetes mellitus war nach der Definition des WHO-Reports (Techn. Rep. Ser. 646, 1 bis 80, 1980) bei diesen Patienten ausgeschlossen. Sie wurden in zwei gleich starke Gruppen eingeteilt, so daß nach Alter sowie Ausmaß und Dauer des Übergewichts kein Unterschied bestand. Die Patienten wurden in halbjährlichen Abständen ambulant kontrolliert. Wie zu Beginn wurden bei diesen Kontrollen folgende Blutwerte gemessen: Blutsenkung, Blutbild, Nüchternblutzucker, IGTT, Gewicht, Cholesterin und Triglyzeride, Serumglutamat-Oxalat-Transaminase (SGOT), Serumglutamat-Pyruvat-Transaminase (SGPT). Damit wurden den Stoffwechsel beeinträchtigende Krankheiten ausgeschlossen. Als Parameter der Atherosklerose wurde die dopplersonographisch bestimmte maximale Blutströmungsgeschwindigkeit in der Arteria dorsalis pedis verwendet. Alle Patienten hatten eine schmerzfreie Gehstrecke von über 200 m, die Arteria dorsalis pedis war gut tastbar. Oszillographisch fand sich kein Anhalt für eine Mediasklerose. Das Vorliegen einer Neuropathie wurde mit den üblichen klinischen Methoden ausgeschlossen.
Die erste Gruppe erhielt 2 x 3 mg Captopril täglich, die zweite Gruppe entsprechend Placebo. Die Patienten hatten die Auflage, keine den Stoffwechsel beeinträchtigenden Medikamente wie z.B. Diuretika, Betablocker oder dergleichen einzunehmen. In beiden Gruppen schieden über den Zeitraum von 3 Jahren 28 Patienten aus verschiedenen Gründen aus. Die Gruppen veränderten sich dadurch jedoch nicht so sehr, daß sie statistisch nicht mehr auswertbar gewesen wären. […] Die Ergebnisse des Versuchs sind in der nachstehenden Tabelle 1 dargestellt. Tabelle I

With `C[C@H](CS)C(=O)N1CCC[C@H]1C(=O)O` [Captopril, 1-(2S)-3-Mercapto-2-methylpropionyl -L-prolin], the “MAXIMALE BLUTSTRÖMUNGSGESCHWINDIGK.” value is, setting by setting: (1985 - 1 (start), Risikopatienten (Stoffwechselgesunde Übergewichtige), n=63) 13,6 ± 0,4 cm/s; (1986 - 2, Risikopatienten, n=60) 13,5 ± 0,3 cm/s; (1987 - 2, Risikopatienten, n=54) 13,4 ± 0,2 cm/s; (1988 - 1 (after 3 years), Risikopatienten, n=48) 13,5 ± 0,2 cm/s. The “Abfall der maximalen Blutströmungsgeschwindigkeit” value (nach 3 Jahren, versus Placebo, 2 x 3 mg Captopril täglich, p 0,05, Student's t-Test) is listed as “signifikant geringerer Abfall”.
